Laboratory results taken from patent US6391907B1, “Indoline derivatives” (American Home Products Corporation, priority 1999, dated 2002).
pEC50, pKi: −log10 of the molar value. “And” between values parts separate entries of the source, which are not always exact repeats. Equal entries are not always repeated.

Tests used:
[1] = molecular target: T1, A-form of the human progesterone receptor (Homo sapiens, UniProt P06401); assay: hPR binding assay (competitive radioligand binding)
T1 sequence (P06401 1-769 isoform P06401-2): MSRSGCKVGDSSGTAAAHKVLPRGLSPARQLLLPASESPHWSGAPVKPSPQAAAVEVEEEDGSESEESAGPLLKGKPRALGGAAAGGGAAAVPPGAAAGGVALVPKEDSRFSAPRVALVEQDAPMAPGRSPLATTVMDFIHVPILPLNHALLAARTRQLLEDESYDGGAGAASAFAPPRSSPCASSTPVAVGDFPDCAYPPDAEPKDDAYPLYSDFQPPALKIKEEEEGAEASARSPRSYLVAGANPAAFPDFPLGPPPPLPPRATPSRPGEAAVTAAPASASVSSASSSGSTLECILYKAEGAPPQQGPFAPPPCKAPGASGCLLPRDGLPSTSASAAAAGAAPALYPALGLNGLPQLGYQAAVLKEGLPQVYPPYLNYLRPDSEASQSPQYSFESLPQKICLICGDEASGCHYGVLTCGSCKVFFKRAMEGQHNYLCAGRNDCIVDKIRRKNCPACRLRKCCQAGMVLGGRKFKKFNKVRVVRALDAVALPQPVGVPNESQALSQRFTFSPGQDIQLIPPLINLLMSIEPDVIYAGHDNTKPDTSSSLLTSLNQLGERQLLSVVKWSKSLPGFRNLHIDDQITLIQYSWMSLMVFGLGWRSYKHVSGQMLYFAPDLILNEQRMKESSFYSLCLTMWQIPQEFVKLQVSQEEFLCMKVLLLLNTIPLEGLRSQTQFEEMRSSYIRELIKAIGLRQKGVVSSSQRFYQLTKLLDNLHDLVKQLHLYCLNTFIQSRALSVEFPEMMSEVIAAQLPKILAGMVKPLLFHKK

[2] = test system: rat uterine decidualization; assay: Rat decidualization assay; type: in vivo; conditions: rat decidualization, antiprogestational mode, read-out: Decid. IC50 mg/kg
Method: 1. Rat Decidualization Assay
The animals are treated once daily for seven days.
Uteri are removed and trimmed of fat.
Decidual response: [(D-C)/C]×100%

[3] = test system: T47D cells; assay: T47D cell proliferation assay (BrdU incorporation); type: cell-based; conditions: half-maximal increase in BrdU incorporation, individual studies
Method: 3. T47D Cell Proliferation Assay
The objective of this assay is the determination of progestational and antiprogestational potency by using a cell proliferation assay in T47D cells. A compound's effect on DNA synthesis in T47D cells is measured.
DMEM:F12 (1:1) (GIBCO, BRL) supplemented with 10% (v/v) fetal bovine serum (not heat-inactivated), 100 U/ml penicillin, […], and 2 mM GlutaMax (GIBCO, BRL).
Minimum Essential Medium (MEM) (#51200-038GIBCO, BRL) phenol red-free supplemented with 0.5% charcoal stripped fetal bovine serum, 100 U/ml penicillin, 200 mg/ml streptomycin, and 2 mM GlutaMax (GIBCO, BRL).
Stock T47 D cells are maintained in growth medium For BrdU incorporation assay, cells are plated in 96-well plates (Falcon, Becton Dickinson Labware) at 10,000 cells/well in growth medium. […]
At the end of BrdU labeling, the medium is removed and BrdU incorporation is measured using a cell proliferation ELISA kit (#RPN 250, Amersham Life Science) according to manufacturer's instructions. […] Then 25 μl of 1 M sulfuric acid is added to each well to stop color reaction and optical density is read in a plate reader at 450 nm within 5 min.
Square root-transformed data are used for analysis of variance and nonlinear dose response curve fitting for both agonist and antagonist modes. […] EC50 or IC50 values are calculated from the retransformed values. […]

Row | SMILES | pKi [1] | melting point | inhibition in vivo at 10 mg/kg [2] [%] | inhibition in vivo at 3 mg/kg ([2]; @ 3 mg/kg) [%] | pEC50 ([3]; Homo sapiens, T47D) | pEC50 [3]
1 | O=C1Nc2ccc(-c3cc(F)cc([N+](=O)[O-])c3)cc2C12CCCCC2 [Example 32, 5-(3-Fluoro-5-nitrophenyl)spiro[cyclohexane-1,3-[3H]indol]-2(1H)-one] | 8.05 | 191 to 193 °C | 60 |  |  | 
2 | N#Cc1cc(-c2ccc3c(c2)C2(CCCCC2)C(=O)N3)cs1 [Example 34, 4-(1,2-Dihydro-2-oxospiro[cyclohexane-1,3-[3H]indol]-5-yl)-2-thiophenecarbonitrile] | 7.72 |  | 50 |  |  | 
3 | N#Cc1ccc(-c2ccc3c(c2)C2(CCCCC2)C(=O)N3)s1 [Example 35] | 7.66 | 225 to 228 °C | 50 |  |  | 
4 | Cc1cc(C#N)sc1-c1ccc2c(c1)C1(CCCCC1)C(=O)N2 [Example 36, 4-Methyl-5-(2′-oxo-2′,3′-dihydrospiro[cyclohexane-1,3′-[3H]indol]-5′-yl)-2-thiophene carbonitrile] | 8.32 | 200 to 203 °C | 50 |  |  | 
5 | O=C1Nc2ccc(-c3ccc([N+](=O)[O-])[nH]3)cc2C12CCCCC2 [Example 44, 5′-(5-Nitro-1H-pyrrol-2-yl)spiro[cyclohexane-1,3′-[3H]indol]-2′(1′H)-one] | 6.91 | 278 °C (dec.) |  | 50 |  | 
6 | CC(=O)O[C@]1(C(C)=O)CC[C@H]2[C@@H]3C[C@H](C)C4=CC(=O)CC[C@]4(C)[C@H]3CC[C@@]21C [MPA, medroxyprogesterone acetate] |  |  |  |  | 10.72 | 
7 | C[C@H](O)C(=O)[C@@]1(C)CC[C@H]2[C@@H]3CCC4=CC(=O)CCC4=C3CC[C@@]21C [Trimegestone] |  |  |  |  |  | 10.77 and 10.85 and 10.72
